Data as given in US10478419B2, “Use of daphnoretin in prevention of tissue or organ transplant rejection or graft-versus-host-disease” (MacKay Memorial Hospital, priority 2017, dated 2019).

Tests used:
[1] = system: phosphorylated c-Jun N-terminal kinase (p-JNK); experiment: Immunoblot analysis of phosphorylated JNK in DCs; assay type: cell-based, human; details: FIG. 5 panels A and B
Experimental: (§1) Human peripheral blood mononuclear cells were collected from healthy donors and were isolated using Histopaque (Amersham Pharmacia Biotech, Piscataway, N.J., USA) for density gradient centrifugation. Erythrocytes were lysed by using 0.9% ammonium chloride incubated for 3 min at 37° C. Thereafter, CD14^+ monocytes were purified by gradient magnetic sorting method using miniMACS system with anti-CD14 microbeads (Miltenyi Biotec, Bergisch Bladbach, Germany). After incubation at 37° C. for 2 hr, nonadherent cells were removed and adherent cells were collected. The purity of isolated CD14^+ monocytes was over 90% by using flow cytometric analysis. Immature DCs were generated from CD14^+ monocytes by culture in RPMI 1640 medium supplemented with 10% fetal calf serum, 100 ng/mL GM-CSF (Schering-Plough, Munich, Germany), 50 ng/mL IL-4 (R&D Systems, Minneapolis, Minn., USA), and daphnoretin (0, 1.1, 3.3, 10 or 30 μM) every 3 days for 6 days in a humidified 5% CO2 incubator. To trigger maturation of DCs, immature DCs were incubated with lipopolysaccharide (LPS) (5 ng/mL) (Sigma, St. Louis, Mo., USA) and/or a combination of cytokines including 5 ng/mL TNF-α, 5 ng/mL IL-1β, 15 ng/mL IL-6 (R&D Systems, Minneapolis, Minn., USA), and 1 μg/mL prostaglandin E2 (PGE2) (Sigma-Aldrich, St. Louis, Mo., USA) for 24 hr. […]

[2] = system: human monocyte-derived dendritic cells (DCs); experiment: Flow cytometric analysis of surface markers on monocyte-derived DCs; assay type: cell-based
Experimental: Human peripheral blood mononuclear cells were collected from healthy donors and were isolated using Histopaque (Amersham Pharmacia Biotech, Piscataway, N.J., USA) for density gradient centrifugation. Erythrocytes were lysed by using 0.9% ammonium chloride incubated for 3 min at 37° C. Thereafter, CD14^+ monocytes were purified by gradient magnetic sorting method using miniMACS system with anti-CD14 microbeads (Miltenyi Biotec, Bergisch Bladbach, Germany). After incubation at 37° C. for 2 hr, nonadherent cells were removed and adherent cells were collected. The purity of isolated CD14^+ monocytes was over 90% by using flow cytometric analysis. Immature DCs were generated from CD14^+ monocytes by culture in RPMI 1640 medium supplemented with 10% fetal calf serum, 100 ng/mL GM-CSF (Schering-Plough, Munich, Germany), 50 ng/mL IL-4 (R&D Systems, Minneapolis, Minn., USA), and daphnoretin (0, 1.1, 3.3, 10 or 30 μM) every 3 days for 6 days in a humidified 5% CO2 incubator. To trigger maturation of DCs, immature DCs were incubated with lipopolysaccharide (LPS) (5 ng/mL) (Sigma, St. Louis, Mo., USA) and/or a combination of cytokines including 5 ng/mL TNF-α, 5 ng/mL IL-1β, 15 ng/mL IL-6 (R&D Systems, Minneapolis, Minn., USA), and 1 μg/mL prostaglandin E2 (PGE2) (Sigma-Aldrich, St. Louis, Mo., USA) for 24 hr. It has been shown that monocyte-conditioned medium containing a combination of pro-inflammatory cytokines (i.e., TNF-α, IL-1, IL-6, and PGE2) or LPS triggers efficient DCs maturation. Daphnoretin was purchased from Sigma (St. Louis, Mo., USA) and dissolved in PBS as a stock solution (0.5 mg/mL). Dual-color immunostain was performed using fluorescein isothiocyanate (FITC)- and phycoerythrin (PE)-conjugated monoclonal antibodies (mAbs). The mouse anti-human mAbs IgG1:FITC/mouse IgG1:PE, and appropriate isotype controls were purchased from Serotec (Oxford, UK) and used for characterization of DCs. The isotype controls used in our study included anti-CD11c and anti-CD14 (for IgG-FITC), anti-CD1a-PE, anti-CD80-PE, anti-CD83-PE, anti-HLA-DR-PE and anti-DC-SIGN-PE. Cells were incubated with saturating concentrations of PE-conjugated mAbs and primary CD11c mAbs followed by IgG-FITC at 4° C. for 30 min. After washing twice with PBS, 1×10^6 cells were applied to a FACS caliber flow cytometer (BD Biosciences, San Jose, Calif., USA). Data were collected and analyzed using CellQuest Software (BD Biosciences, San Jose, Calif., USA).

[3] = system: CD4+CD45RA+ naive T cells; experiment: Allogenic naive T cell proliferation stimulated by matured DCs (BrdU); assay type: cell-based, human; details: mature DCs : CD4+CD45RA+ cells 1:10 or 1:30; FIG. 4
Text: Nonadherent cells from culture of isolated mononuclear cells were used to purify naïve T cells. Naïve T cells were enriched with a CD4^+CD45RA^+T cell isolation kit (Miltenyi Biotec) using a MIniMACS system with negative selection technique. Monocyte-derived DCs were harvested and irradiated (3,000 cGy in a single fraction) with 6 MeV X-ray generated by linear accelerator (Clinac® 1800, Varian Associates Inc., CA) at a dose of 4.0 Gy/min. Full electron equilibrium was ensured for each fraction by a parallel plate PR-60C ionization chamber (Capintel Inc., Ramsey, N.J., USA). […] The cells were then collected and the incorporated BrdU was detected using flow cytometry to estimate T cell proliferation.

[4] = system: human monocyte-derived dendritic cells (DCs); experiment: Morphological observation of monocyte-derived DCs (differentiation); assay type: cell-based
Experimental: as §1

[5] = system: hepatitis B surface antigen; details: human hepatoma Hep3B cells; cited from earlier work
[6] = system: protein kinase C (PKC); details: human hepatoma Hep3B cells; cited from earlier work
[7] = system: acute rejection of skin allografts; experiment: Skin allograft transplantation model
Text: Male C57BL/6(H-2^b) and BALB/6(H-2^d) mice aged 6-8 weeks were purchased from Animal Resource Center of National Science Council of Taiwan (Taipei, Taiwan) and maintained in a room with 12 hr light/dark cycles. Standard laboratory chow and water were available ad libitum. […] Briefly, a 2×1 cm full-thickness skin graft was harvested from the donor mouse and sutured to the graft bed of a recipient mouse. The skin graft rejection was defined as necrosis of more than 80% of the epidermal surface. Daphnoretin (0.5 or 1.0 mg/Kg) and rapamycin (3.0 mg/Kg) were administered intraperitoneally daily until rejection was observed. Body weight was recorded and the white blood cell count was estimated by an automatic counter.

[8] = system: Ehrlich ascites tumor, cervical cancer and lung adenocarcinoma; details: cited from earlier work
[9] = system: human monocyte-derived dendritic cells (DCs); experiment: Number of viable DCs, trypan blue dye exclusion test; assay type: cell-based; details: daphnoretin 1.1, 3.3, 10 or 30 μM, FIG. 3
Experimental: as §1

Compound | level of p-JNK in DCs treated with daphnoretin, effect of added JNK activator ([1]; co-incubated with daphnoretin) | expression of CD1a ([2]; FIG. 2 panel A) | expression of macrophage marker CD14 ([2]; FIG. 2 panel B) | expression of CD40 ([2]; FIG. 2 panel C) | expression of CD83 ([2]; FIG. 2 panel D) | expression of DC-SIGN ([2]; FIG. 2 panel E) | level of p-JNK in DCs ([1]; DCs treated with daphnoretin) | proliferation of DCs stimulated T cells [3] | differentiation process of DCs (morphology, formation of dendrites) ([4]; daphnoretin 1.1, 3.3, 10 or 30 μM, FIG. 1) | morphology of DCs ([4]; treated with daphnoretin and anisomycin, FIG. 5 panel C) | expression of hepatitis B surface antigen [5] | protein kinase C (PKC) activity and intracellular level [6] | fraction of the survived skin graft ([7]; daphnoretin 1.0 mg/Kg/day intraperitoneally, FIG. 6 panel A) | body weight of the recipient mouse ([7]; daphnoretin dose employed, vs control, FIG. 6 panel B) | white blood cell count of the recipient mouse ([7]; daphnoretin dose employed, vs control, FIG. 6 panel C) | anti-cancer activity [8] | cell viability (cell numbers of mature and immature DCs) [9]
COc1ccc(C[C@H]2NC[C@H](O)[C@H]2OC(C)=O)cc1 [anisomycin, reference compound] | could reverse this decrease |  |  |  |  |  |  |  |  |  |  |  |  |  |  |  | 
COc1cc2cc(Oc3ccc4ccc(=O)oc4c3)c(=O)oc2cc1O [daphnoretin, 7-hydroxy-6-methoxy-3,7′-dicoumaryl ether] |  | suppressed | unaffected | suppressed | suppressed | suppressed | decrease | suppressed | suppressed | remained rounded and without the formation of any dendrites | suppressing the expression of hepatitis B surface antigen | inactivating protein kinase C (PKC) | even higher than that treated of the rapamycin-treated mouse | did not vary significantly | did not vary significantly | possess anti-cancer activity | reduced the cell numbers of both mature and immature DCs in dose-dependent manner
